No end group written: not given here.
Tests used:
[1] = system: murine melanoma B16F10; assay: Reduction of the size of the tumor, subcutaneous murine melanoma in adult mice (Example 2); assay type: in vivo; conditions: adult C57BL/6 mice, s.c. B16F10 established 7 days, 50 μg/ml inoculated in the tumors for 5 days
Method: (§1) For the study of the reduction of the size of the tumor making use of different therapies and their comparison with that of the invention, 1×10^6 cells of murine melanoma B16F10 were inoculated in a subcutaneous manner in the left ventral flank of 8-12-week old female mice of the C57BL/6 strain.
(§2) After 7 days post-inoculation, 50 μg/ml of the following therapies were inoculated in the tumors for 5 days: LLO91-99 (only peptide from listeriolysin O of Listeria monocytogenes, LLO91-99), GNP (empty gluconanoparticles), GNP-LLO91-99 (gluconanoparticles synthesized with the peptide from listeriolysin O of Listeria monocytogenes, LLO91-99), GNP-GAPDH1-22 (nanoparticles synthesized with the peptide from glyceraldehyde-3-phosphate dehydrogenase of Listeria monocytogenes, GAPDH1-22) or no particle (NT). Dendritic cells loaded with the LLO91-99 (1×10^6 DC-LLO91-99) peptide were also included as a control, a vector previously used in therapy.
(§3) Following this treatment, the mice were sacrificed and the tumors recovered, measuring their size with a gauge.

[2] = system: murine melanoma B16F10; assay: Metastasis in the lung from murine melanoma (Example 3); assay type: in vivo, mice; conditions: s.c. B16F10, 50 μg/ml inoculated in the tumors for 5 days
Method: For the study of metastasis in the lung of murine melanoma following the use of different therapies and their comparison with that of the invention, 1×10^6 cells of murine melanoma B16F10 were inoculated in a subcutaneous manner just like in FIG. 1. Following 7 days post-inoculation, 50 μg/ml of the following therapeutic particles were inoculated in the tumors for 5 days: GNP (empty gluconanoparticles), GNP-LLO91-99 (gluconanoparticles synthesized with the peptide from listeriolysin O of Listeria monocytogenes, LLO91-99), GNP-GAPDH1-22 (nanoparticles synthesized with the peptide from glyceraldehyde-3-phosphate dehydrogenase of Listeria monocytogenes, GAPDH1-22) or no particle (NT). As a control, the vector previously used in therapy was also included consisting of dendritic cells loaded with the LLO91-99 (1×10^6 DC-LLO91-99) peptide.
Following this treatment, the mice were sacrificed and the lungs removed, which were washed with PBS. Subsequently, the tumor nodules were counted under a magnifying glass, which were observed as black spots on the lungs.

[3] = system: murine melanoma B16OVA; assay: Prevention of tumor growth, intraperitoneal melanoma after preventive treatment (Example 5); assay type: in vivo, mice
Method: For the comparative study of the prevention of tumor growth in adults between the therapy of the invention and known anti-tumor therapies, the following therapies (50 μg/ml) were inoculated in female adults of the C57BL/6 strain in an intraperitoneal manner: LLO91-99 (only peptide from listeriolysin O of Listeria monocytogenes, LLO91-99), GNP (empty gluconanoparticles), GNP-LLO91-99 (gluconanoparticles synthesized with the peptide from listeriolysin O of Listeria monocytogenes, LLO91-99), GNP-GAPDH1-22 (nanoparticles synthesized with the peptide from glyceraldehyde-3-phosphate dehydrogenase of Listeria monocytogenes, GAPDH1-22) or saline (NT).
Following 7 days preventative post-treatment, the tumors were established following inoculation with 5×10^6 cells of murine melanoma B16OVA in an intraperitoneal manner. Following 7 days post-established of the tumor, the mice were sacrificed and the recovered tumors were measured by means of a gauge and the tumors were analyzed by means of immunohistochemical staining. The results of the reduction of the tumor growth and their intraperitoneal position are shown in FIG. 4A and FIG. 4B and the results of the analysis of the immunohistochemical staining in FIG. 4C.

[4] = system: murine melanoma B16F10; assay: Reduction of the size of the tumor in newborns (Example 6); assay type: in vivo; conditions: 9-day old Balb/c mice, s.c. B16F10 established 5 days, 50 μg/ml in the tumors for 5 days
Method: as §1, with “tumor in newborns” for “tumor”, “5×10^5” for “1×10^6”, “interscapular area” for “left ventral flank”, “9-day” for “8-12-week”, “Balb/c” for “C57BL/6”
as §2, with “Following 5” for “After 7”, “GAPDH1-22). As” for “GAPDH1-22) or no particle (NT). Dendritic cells loaded with the LLO91-99 (1×10^6 DC-LLO91-99) peptide were also included as”, “therapy was also included, dendritic cells loaded with the LLO91-99 (1×10^5 DC-LLO91-99) peptide.” for “therapy.”
as §3

[5] = system: A-375, human melanoma; assay: In vitro apoptosis-necrosis, flow cytometry annexin V-APC / 7-ADD; assay type: cell-based; conditions: 10 μg/ml, 16 hours, A375
Method: (§4) 1.—Tumor cells. The cells used are: Hepa1-6, murine hepatocarcinoma, TC-1, murine lung carcinoma; B16F10, murine melanoma; A-375, human melanoma; hamster melanoma (ATCC).
(§5) 2.—In vitro apoptosis-necrosis. The different tumor cells (1×10^6 cells) are treated with 10 μg/ml of the GNP-LLO91-99 gold nanoparticles in culture plates, 16 hours prior to the apoptosis-necrosis analysis, including cells of each type of tumor without treatment with the gold nanoparticles (control). Following washing, the cells are analyzed by means of flow cytometry using two specific products, annexin V conjugated with the APC fluorochrome and the fluorescent marker for binding to DNA, 7-ADD (7-amino-actinomycin D). Apoptosis and necrosis in the tumor cells are analyzed by means of the differential marking with annexin V-APC and 7-ADD expressed as percentages. While the necrosis is indicated as the percentage of cells doubly marked with annexin V-APC and 7-ADD, the apoptosis is expressed as the percentage of cells marked only with annexin V.

[6] = system: B16F10, murine melanoma; assay: as above; assay type: cell-based; conditions: 10 μg/ml, 16 hours
Method: as §4, §5

[7] = system: Hepa1-6, murine hepatocarcinoma; assay: as above; assay type: cell-based; conditions: 10 μg/ml, 16 hours
Method: as §4, §5

[8] = system: TC-1, murine lung carcinoma; assay: as above; assay type: cell-based; conditions: 10 μg/ml, 16 hours
Method: as §4, §5

[9] = as above; assay type: cell-based, hamster; conditions: 10 μg/ml, 16 hours, CHO
Method: as §4, §5

In the case of “GNP-LLO91-99: gluconanoparticles synthesized with the peptide from listeriolysin O of Listeria monocytogenes, LLO91-99 (GYKDGNEYI; also: gold glyconanoparticle conjugate; UniProt P13128 91-99, looked up, fragment)”, the “therapeutic effect on the melanoma (in words)” value [1] is reported as “does achieve a significant tumor regression”, the tumor regression [1] is reported as 90% and the “formation of metastasis in the lungs (in words)” value [2] is reported as “prevents the formation of metastasis in the lungs”. The “prevention of the formation of metastasis in the lungs” value ([2]; lung tumor nodules counted) was “more than 95%”, the “prevention of tumor growth” value ([3]; 50 μg/ml intraperitoneal 7 days before i.p. B16OVA, adult C57BL/6, tumors measured 7 days after establishment) was 90% and the “necrotizing foci in the melanomas” value ([3]; immunohistochemical staining of recovered peritoneal tumors) was 60%. For the same substance, the “position of the tumor / spreading to other organs” value ([3]; intraperitoneal B16OVA after preventive treatment) was “positioned intraperitoneally preventing its spreading to other organs”, the “tumor regression in newborns” value [4] was 95% and the “effect of inducing apoptosis” value [5] was “much more pronounced”. For the same substance, the “effect of inducing apoptosis” value [6] was “much more pronounced”, the “effect of inducing apoptosis” value [7] was “much more pronounced” and the “induction of tumor apoptosis and necrosis” value [7] was “induce both tumor apoptosis and necrosis”. For the same substance, the “effect of inducing apoptosis” value [8] was “much more pronounced”, the “induction of tumor apoptosis and necrosis” value [8] was “induce both tumor apoptosis and necrosis” and the “induction of tumor apoptosis and necrosis / inhibitory effect” value [9] was “do not cause any inhibitory effect”.

From US20190046627A1, “USE OF A GNP-LLO91-99 COMPLEX FOR THE TREATMENT AND PREVENTION OF CANCER” (FUNDACIÓN INSTITUTO DE INVESTIGACIÓN MARQUES DE VALDECILLA, priority 2016, published 2019)
